Drawing on paper PMC10098062 (Molecular Plant Pathology, 2023), this text covers Kd for one compound.

Each structure is given as a SMILES string.

This test deals with T1, SstF (SFN-sensing transcription factor, LysR family) (Xanthomonas campestris, UniProt Q8PAP2).
T1 sequence (Q8PAP2 1-344): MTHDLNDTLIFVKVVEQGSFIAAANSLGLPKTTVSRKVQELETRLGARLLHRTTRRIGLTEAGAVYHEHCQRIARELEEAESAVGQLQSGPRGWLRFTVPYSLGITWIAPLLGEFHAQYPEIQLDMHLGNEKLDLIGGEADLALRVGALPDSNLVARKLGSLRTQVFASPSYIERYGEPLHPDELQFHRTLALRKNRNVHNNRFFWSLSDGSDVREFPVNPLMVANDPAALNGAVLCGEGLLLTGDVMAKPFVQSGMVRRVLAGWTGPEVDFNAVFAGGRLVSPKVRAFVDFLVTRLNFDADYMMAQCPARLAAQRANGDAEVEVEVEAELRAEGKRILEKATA
The test is described as follows: SPR. It counts as binding.

The Kd is the concentration at which binding is half-saturated. Low readings indicate higher affinity, high ones lower affinity. The compound `C[S+]([O-])CCCCN=C=S` (stereo not shown) [SFN, Sulforaphane] registered a Kd of 17.3 nM.
